One assay concerns the target T1, parental XynA (Bacillus subtilis, UniProt P18429).
T1 construct: GH11 xylanase, mature 185 residues; activity ratio measured in culture supernatants
The assay can be described thus: RBB-xylan hydrolysis by culture supernatant, dye release at […] nm. Particulars: 1% (m/v) D-xylose; acetate pH 5.5, 37 °C; product inhibition. The format is biochemical.

In assay [1] the target is T2, 2621B (XynA inserted in XBP at position 262).
T2 construct: gene xylF; single polypeptide: XBP to Q262, linker GGGG, XynA (1-185), linker GA, XBP from residue 263; pET28a, E. coli Rosetta (DE3), Ni-NTA (His tag not described); with Endo-1,4-beta-xylanase A
Briefly: intrinsic tryptophan fluorescence titration. The assay is classed as binding, Escherichia coli. Particulars: 20 mM Hepes pH 7.5, 25 °C; 3 µM protein; XBP domain site, allosteric activator of xylanase.

In assay [2] the target is T3, parental XBP (xylose binding protein, XylF) (Escherichia coli, UniProt P37387).
T3 construct: full XBP expressed in E. coli Rosetta (DE3) and purified; vector, tag and signal peptide of the purified parental XBP not described
T3 sequence (P37387 24-330): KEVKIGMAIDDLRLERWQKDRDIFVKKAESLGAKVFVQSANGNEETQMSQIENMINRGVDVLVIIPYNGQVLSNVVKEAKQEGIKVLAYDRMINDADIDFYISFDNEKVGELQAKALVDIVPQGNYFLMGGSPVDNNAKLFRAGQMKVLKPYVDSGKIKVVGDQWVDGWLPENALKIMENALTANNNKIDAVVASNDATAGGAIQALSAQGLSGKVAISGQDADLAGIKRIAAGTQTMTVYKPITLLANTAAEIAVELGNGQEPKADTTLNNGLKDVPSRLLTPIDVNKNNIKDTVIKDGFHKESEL
The assay can be described thus: intrinsic tryptophan fluorescence titration. To be noted: 20 mM Hepes pH 7.5, 25 °C; 3 µM protein.

Assay [3] addresses T4, 2091A (XynA inserted in XBP at position 209).
T4 construct: gene xylF; single polypeptide: XBP to A209, linker AG, XynA (1-185), linker GGA, XBP from residue 210; pET28a, E. coli Rosetta (DE3), Ni-NTA (His tag not described); with Endo-1,4-beta-xylanase A
The assay can be described thus: intrinsic tryptophan fluorescence titration. To be noted: 20 mM Hepes pH 7.5, 25 °C; 3 µM protein; XBP domain site, allosteric activator of xylanase. The assay is classed as binding, Escherichia coli.

For the compound `OC1OC[C@@H](O)[C@H](O)[C@H]1O` (stereo partly drawn) [D-xylose], the “+xyl/-xyl ratio^a” value on parental XynA turned out to be 0.80 ± 0.04. Moreover, the Kd came out at 160 ± 10 nM in assay [1], 140 ± 30 nM in assay [2] and 150 ± 20 nM in assay [3].

A word on the Kd: it is a measure of binding affinity in units of concentration.

The values are drawn from PMC4536891, “Insertion of a xylanase in xylose binding protein results in a xylose-stimulated xylanase” (Biotechnology for Biofuels, 2015).
